The values below are quoted from earlier work in article PMC3985708 (Biochemistry, 2014).

In one data set the target is unmodified hASL^Lys3. The conditions noted are these: read-out: Kd of NCp7 for unmodified ASL.
Another data set concerns the target modified hASL^Lys3UUU. The settings on record: read-out: Kd, modified hASL^Lys3UUU; Kd value from previous studies.

With “NCp7: HIV-1 nucleocapsid protein 7 (MQRGNFRNQRKIVKCFNCGKEGHTARNCRAPRKKGCWKCGKEGHQMKDCTERQAN; Nucleocapsid protein p7; UniProt P04591 378-432, looked up)”, in the data set with modified hASL^Lys3 (modified versus unmodified ASL), the “Increase of NCp7 affinity for hASL^Lys3 by the modifications” value is ~10 fold. The equilibrium dissociation constant (Kd) on modified hASL^Lys3 (read-out: Kd of NCp7 for modified ASL, modified hASL^Lys3) was 280 ± 30 nM; at unmodified hASL^Lys3, 2300 ± 620 nM.

With RVTHHAFLGAHRTVG [P6], on modified hASL^Lys3UUU, the Kd was 500 ± 100 nM.

One may read the Kd as the constant that tells how readily two partners part at equilibrium.
